Assay results published in ChEMBL document CHEMBL5729355, “N/O-linked Degrons and Degronimers for protein degradation” (2022).

Target: Protein cereblon/DNA damage-binding protein 1 (Homo sapiens, UniProt Q96SW2)
Test: Fluorescence Polarization (FP) Assay for Screening Compound Ligand Binders of CRBN-DDM: Measuring compound ligand binding to CRBN-DDB1 was carried out using an established sensitive and quantitative in vitro fluorescence polarization (FP) based binding assay. (See, I. J. Enyedy et al, J. Med. Chem., 44: 3134324, 2001). Compounds were dispensed from serially diluted DMSO stock into black 384-well compatible fluorescence polarization plates using an Echo acoustic dispenser. Compound binding to CRBN-DDB1 was measured by displacement of either a (−)-Thalidomide-Alexa Fluor® or Pornalidomide-fluorescein conjugated probe dye. A 20 μL mixture containing 400 nM CRBN-DDB1 and 5 nM probe dye in 50 mM Hepes, pH 7.4, 200 mM NaCl, 1% DMSO and 0.05% pluronic acid-127 acid was added to wells containing compound and incubated at room temperature for 60 min. Matching control wells excluding CRBN-DDB1 were used to correct for background fluorescence. Plates were read on an Envision plate reader with appropriate FP filter sets. […]
Assay type: protein assay

Chain of Protein cereblon/DNA damage-binding protein 1 (Q96SW2 whole entry): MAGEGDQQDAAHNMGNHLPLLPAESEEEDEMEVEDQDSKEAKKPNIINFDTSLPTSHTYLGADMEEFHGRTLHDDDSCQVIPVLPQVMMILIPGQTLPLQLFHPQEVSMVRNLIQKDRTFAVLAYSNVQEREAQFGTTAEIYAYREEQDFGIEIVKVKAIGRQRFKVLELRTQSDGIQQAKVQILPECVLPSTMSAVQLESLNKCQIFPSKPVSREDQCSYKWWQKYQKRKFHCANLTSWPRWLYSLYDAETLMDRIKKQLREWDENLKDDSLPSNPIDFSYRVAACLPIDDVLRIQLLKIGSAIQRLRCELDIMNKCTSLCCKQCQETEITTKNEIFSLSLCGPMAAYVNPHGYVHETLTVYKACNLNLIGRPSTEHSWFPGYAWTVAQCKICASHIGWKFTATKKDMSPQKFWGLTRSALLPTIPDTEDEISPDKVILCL
Chain of Protein cereblon/DNA damage-binding protein 1 (Q16531 whole entry, further chain): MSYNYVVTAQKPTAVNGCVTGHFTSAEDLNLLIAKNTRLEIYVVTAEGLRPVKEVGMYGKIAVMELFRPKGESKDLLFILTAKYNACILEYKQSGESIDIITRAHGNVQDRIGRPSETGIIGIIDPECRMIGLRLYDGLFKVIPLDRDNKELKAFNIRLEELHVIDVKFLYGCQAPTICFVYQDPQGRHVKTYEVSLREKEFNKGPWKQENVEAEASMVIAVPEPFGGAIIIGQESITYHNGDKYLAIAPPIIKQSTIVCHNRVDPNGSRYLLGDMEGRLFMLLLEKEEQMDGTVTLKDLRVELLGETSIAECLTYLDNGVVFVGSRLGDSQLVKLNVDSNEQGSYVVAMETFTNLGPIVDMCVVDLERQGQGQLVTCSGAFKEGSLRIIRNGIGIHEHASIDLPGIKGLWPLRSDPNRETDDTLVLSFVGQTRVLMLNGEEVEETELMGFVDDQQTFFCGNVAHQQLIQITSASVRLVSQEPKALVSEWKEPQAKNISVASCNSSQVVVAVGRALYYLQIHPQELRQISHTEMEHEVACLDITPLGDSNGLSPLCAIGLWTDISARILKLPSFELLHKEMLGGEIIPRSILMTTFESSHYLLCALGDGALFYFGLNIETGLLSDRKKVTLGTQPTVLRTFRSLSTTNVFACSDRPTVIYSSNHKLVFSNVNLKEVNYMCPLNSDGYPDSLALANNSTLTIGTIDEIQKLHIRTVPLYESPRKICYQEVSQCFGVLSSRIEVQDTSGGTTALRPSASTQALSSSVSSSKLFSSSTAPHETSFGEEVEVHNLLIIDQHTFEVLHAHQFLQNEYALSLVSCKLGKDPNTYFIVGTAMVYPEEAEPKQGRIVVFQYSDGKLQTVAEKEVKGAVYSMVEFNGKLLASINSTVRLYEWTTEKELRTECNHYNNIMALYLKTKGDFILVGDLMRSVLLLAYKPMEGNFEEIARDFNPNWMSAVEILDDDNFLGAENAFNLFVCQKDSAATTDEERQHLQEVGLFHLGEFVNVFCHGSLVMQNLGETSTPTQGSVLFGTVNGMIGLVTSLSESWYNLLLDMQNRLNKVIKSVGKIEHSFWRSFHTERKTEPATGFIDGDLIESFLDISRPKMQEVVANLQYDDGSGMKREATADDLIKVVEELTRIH

## Cn1c(NC2CCC(=O)NC2=O)nc2ccccc21 (stereo unspecified)
  Kd: > 100 µM
